{"source": "patent US11426421B2", "about": "“Composition for preventing or improving inflammation including extract of seed of new soybean cultivar SCEL-1” (KOREA INSTITUTE OF SCIENCE AND TECHNOLOGY, priority 2018, dated 2022)", "system": "oxazolone-induced atopic dermatitis in mice", "assay": "Oxazolone-induced atopic dermatitis in mice, samples applied to the ear, ear thickness (H&E histology)", "type": "in vivo, mouse", "details": "positive control group (Dexa), concentration not given; FIG. 2", "procedure": "In a mouse, oxazolone was administered thereto to induce an oxazolone-induced atopic dermatitis. Then, the effect of the extract of the selected cultivar on atopic dermatitis was examined.\nIn detail, mice (male, 20 g, 8-week-old, Central Lab. Animal Inc.) was divided into a group of 6, and each group was named as a control group, a induction group (Vehicle), a positive control group (Dexa), a soybean SCEL-1 0.1% (w/v)-treated group, a soybean SCEL-1 0.3% (w/v)-treated group, a SCEL-1 1.0% (w/v)-treated group, and a general black soybean (available from Nonghyup of Gangneungkyo-1-dong) 1.0% (w/v)-treated group. Each sample was prepared in the same manner as in Section (1).\nTo induce atopic dermatitis in mice, 40 μl of 1% oxazolone per ear was applied once a day. After one week and starting from the eighth day, 40 μl of 1% oxazolone per ear was applied on alternate days for three weeks. In addition, starting from the eighth day, in addition to the oxazolone application, samples were also applied twice a day. Immediately after the experiment, a tissue of the ear was immobilized in 10% paraformaldehyde for 24 hours or more, and then, immersed in paraffin to form a block. The block was then fixed, and cut to a thickness of 10 μm by using a microtome that enables cutting to a constant thickness. […]"}
{"smiles": "C[C@@H]1C[C@H]2[C@@H]3CCC4=CC(=O)C=C[C@]4(C)[C@@]3(F)[C@@H](O)C[C@]2(C)[C@@]1(O)C(=O)CO", "note": "[dexamethanosone]", "values": [{"measurement": "ear thickness of the mouse having oxazolone-induced atopic dermatitis", "value": "reduced to a thickness near the normal level"}]}
